In US5591714A, “Derivatives of A82846” (priority 1994, dated 1997):
Values after ≈ are worked out from the molar mass of the structure shown.

Legend:
human serum protein = conditions: cited from earlier work
Staphylococcus aureus = assay: In vivo activity, experimentally infected mice (ED50); conditions: Staphylococcus aureus infection; doses administered subcutaneously to mice 1 and 4 hours postinfection
[1] = test system: six vancomycin-susceptible strains of staphylococci and enterococci; assay: Effect of human serum on the MIC, serial dilution assay; type: cell-based; conditions: for MIC determined in absence of added serum: absence (-) of human serum; for ratio of the MIC in the presence of added serum to the MIC in the absence of added serum: indication of the degree of serum binding; for MIC determined in presence of human serum: broth supplemented with human serum to 40%
Source text: Another important property of the formula I compounds is the low binding of the compounds to serum proteins when compared with other glycopeptide antibiotics. […] The ratio of the MIC measured in the presence of added serum to the MIC measured in the absence of added serum ("ratio") is an indication of the degree of serum binding. […] A ratio that is greater than one, for example about ten, indicates the compound has a high degree of serum binding.

[2] = test system: Staphylococcus aureus S13E; type: cell-based
Experimental: (§1) The formula I compounds have in vitro and in vivo activity against Gram-positive pathogenic bacteria. The MIC's were determined using a standard agar-dilution assays.

[3] = test system: Streptococcus pneumoniae Park 1; type: cell-based
Experimental: as §1

Streptococcus pyogenes = assay: In vivo activity, experimentally infected mice (ED50); conditions: Streptococcus pyogenes infection; doses administered subcutaneously to mice 1 and 4 hours postinfection
[4] = test system: Enterococcus faecalis 2041; assay: MIC, standard agar-dilution assay; type: cell-based
Experimental: as §1
^c Formerly Streptococcus faecalis 2041

[5] = test system: Staphylococcus aureus NRRL X1.1; assay: MIC, standard agar-dilution assay; type: cell-based
Experimental: as §1

[6] = test system: Haemophilus influenzae 76; assay: MIC, standard agar-dilution assay; type: cell-based
Experimental: as §1

[7] = test system: Haemophilus influenzae C.L.; assay: MIC, standard agar-dilution assay; type: cell-based
Experimental: as §1

[8] = test system: Staphylococcus aureus X400; assay: MIC, standard agar-dilution assay; type: cell-based
Experimental: as §1

[9] = test system: Staphylococcus epidermidis 222; assay: MIC, standard agar-dilution assay; type: cell-based
Experimental: as §1

Escherichia coli TEM = assay: MIC, standard agar-dilution assay; type: cell-based
Experimental: as §1

[10] = test system: Klebsiella pneumoniae X26; assay: MIC, standard agar-dilution assay; type: cell-based
Experimental: as §1

Escherichia coli EC14 = assay: MIC, standard agar-dilution assay; type: cell-based
Experimental: as §1

[11] = test system: Staphylococcus aureus V41; assay: MIC, standard agar-dilution assay; type: cell-based
Experimental: as §1

[12] = test system: Streptococcus pyogenes C203; assay: MIC, standard agar-dilution assay; type: cell-based
Experimental: as §1

Escherichia coli N10 = assay: MIC, standard agar-dilution assay; type: cell-based
Experimental: as §1

[13] = test system: Staphylococcus epidermidis EPI270; assay: MIC, standard agar-dilution assay; type: cell-based
Experimental: as §1

[14] = test system: Klebsiella pneumoniae KAE; assay: MIC, standard agar-dilution assay; type: cell-based
Experimental: as §1

[15] = test system: Klebsiella pneumoniae X68; assay: MIC, standard agar-dilution assay; type: cell-based
Experimental: as §1

Enterococcus faecium X66 = assay: MIC, standard agar-dilution assay; type: cell-based
Experimental: as §1
^b Formerly Streptococcus faecium X66

[16] = test system: vancomycin-resistant (Vanco^r) E. faecium and E. faecalis; assay: Susceptibility of vancomycin-resistant enterococci, agar-dilution MIC; type: cell-based; conditions: for Geometric Mean MIC, Vanco^r Strains: n = 25 strains, end points read after 24-hour incubation
Experimental: (§2) End points were read after 24-hour incubation. The ratio was calculated by dividing the mean MIC of the compound against the vancomycin-resistant strains by the mean MIC of the compound against the vancomycin-susceptible strains.

Streptococcus pneumoniae = assay: In vivo activity, experimentally infected mice (ED50); conditions: Streptococcus pneumoniae infection; doses administered subcutaneously to mice 1 and 4 hours postinfection
[17] = test system: vancomycin-susceptible (Vanco^s) E. faecium and E. faecalis; assay: Susceptibility of vancomycin-susceptible enterococci, agar-dilution MIC; type: cell-based; conditions: n = 34 strains; end points read after 24-hour incubation
Experimental: as §2

Compound	ED50 (Staphylococcus aureus) [mg/kg/2]	MIC determined in absence of added serum [1]	ratio of the MIC in the presence of added serum to the MIC in the absence of added serum [1]	MIC determined in presence of human serum [1]	MIC [2]	MIC [3]	ED50 (Streptococcus pyogenes) [mg/kg/2]	MIC [4]	MIC [5]	MIC [6] [µg/mL]	MIC [7] [µg/mL]	MIC [8]	MIC [9]	MIC (Escherichia coli TEM) [µg/mL]	MIC [10] [µg/mL]	MIC (Escherichia coli EC14) [µg/mL]	MIC [11]	MIC [12]	MIC (Escherichia coli N10) [µg/mL]	MIC [13] [µg/mL]	further results
CN[C@H](CC(C)C)C(=O)N[C@H]1C(=O)N[C@@H](CC(N)=O)C(=O)N[C@H]2C(=O)N[C@H]3C(=O)N[C@H](C(=O)N[C@H](C(=O)O)c4cc(O)cc(O)c4-c4cc3ccc4O)[C@H](O)c3ccc(c(Cl)c3)Oc3cc2cc(c3O[C@@H]2O[C@H](CO)[C@@H](O)[C@H](O)[C@H]2O[C@H]2C[C@](C)(N)[C@H](O)[C@H](C)O2)Oc2ccc(cc2Cl)[C@H]1O [vancomycin]																					level of human serum protein binding (human serum protein): 55%
CCCCCCCCN[C@@]1(C)C[C@H](O[C@H]2[C@H](Oc3c4cc5cc3Oc3ccc(cc3Cl)[C@@H](O[C@H]3C[C@](C)(N)[C@@H](O)[C@H](C)O3)[C@@H]3NC(=O)[C@H](NC(=O)[C@@H]5NC(=O)[C@H](CC(N)=O)NC(=O)[C@H](NC(=O)[C@@H](CC(C)C)NC)[C@H](O)c5ccc(c(Cl)c5)O4)c4ccc(O)c(c4)-c4c(O)cc(O)cc4[C@@H](C(=O)O)NC3=O)O[C@H](CO)[C@@H](O)[C@@H]2O)O[C@@H](C)[C@@H]1O [Compound 38]	0.43	0.75	0.58	0.43	.5 µg/mL (≈ 0.293 µM)	.25 µg/mL (≈ 0.147 µM)	0.11	.25 µg/mL (≈ 0.147 µM)	.5 µg/mL (≈ 0.293 µM)	> 128	> 128	1 µg/mL (≈ 0.587 µM)	.5 µg/mL (≈ 0.293 µM)	> 128	> 128	> 128	1 µg/mL (≈ 0.587 µM)	.06 µg/mL (≈ 0.0352 µM)	> 128	1 (≈ 0.587 µM)	MIC [14]: > 128 µg/mL; MIC [15]: > 128 µg/mL; MIC (Enterococcus faecium X66): .25 µg/mL (≈ 0.147 µM); Ratio (mean MIC vancomycin-resistant strains / mean MIC vancomycin-susceptible strains) [16]: 2.9; Geometric Mean MIC, Vanco^r Strains [16]: 2.1 µg/mL; ED50 (Streptococcus pneumoniae): 0.062 mg/kg/2; Geometric Mean MIC, Vanco^s Strains [17]: 0.73 µg/mL
CCCCCCCCCCN[C@@]1(C)C[C@H](O[C@H]2[C@H](Oc3c4cc5cc3Oc3ccc(cc3Cl)[C@@H](O[C@H]3C[C@](C)(N)[C@@H](O)[C@H](C)O3)[C@@H]3NC(=O)[C@H](NC(=O)[C@@H]5NC(=O)[C@H](CC(N)=O)NC(=O)[C@H](NC(=O)[C@@H](CC(C)C)NC)[C@H](O)c5ccc(c(Cl)c5)O4)c4ccc(O)c(c4)-c4c(O)cc(O)cc4[C@@H](C(=O)O)NC3=O)O[C@H](CO)[C@@H](O)[C@@H]2O)O[C@@H](C)[C@@H]1O [Compound 42]	0.67	0.87	0.76	0.66	1 µg/mL (≈ 0.577 µM)	.25 µg/mL (≈ 0.144 µM)	0.09	.5 µg/mL (≈ 0.289 µM)	.5 µg/mL (≈ 0.289 µM)	> 128	> 128	.5 µg/mL (≈ 0.289 µM)	.5 µg/mL (≈ 0.289 µM)	> 128	> 128	> 128	.5 µg/mL (≈ 0.289 µM)	.25 µg/mL (≈ 0.144 µM)	> 128	1 (≈ 0.577 µM)	MIC [14]: > 128 µg/mL; MIC [15]: > 128 µg/mL; MIC (Enterococcus faecium X66): .06 µg/mL (≈ 0.0346 µM); Ratio (mean MIC vancomycin-resistant strains / mean MIC vancomycin-susceptible strains) [16]: 2.7; Geometric Mean MIC, Vanco^r Strains [16]: 2.5 µg/mL; ED50 (Streptococcus pneumoniae): 0.09 mg/kg/2; Geometric Mean MIC, Vanco^s Strains [17]: 0.92 µg/mL
CNC(CC(C)C)C(=O)NC1C(=O)NC(CC(N)=O)C(=O)NC2C(=O)NC3C(=O)NC(C(=O)NC(C(=O)O)c4cc(O)cc(O)c4-c4cc3ccc4O)C(OC3CC(C)(N)C(O)C(C)O3)c3ccc(c(Cl)c3)Oc3cc2cc(c3OC2OC(CO)C(O)C(O)C2OC2CC(C)(NCc3ccc(Br)cc3)C(O)C(C)O2)Oc2ccc(cc2Cl)C1O (centres unmarked) [Compound 58]	0.38	0.43	2.3	1.0	1 µg/mL (≈ 0.568 µM)	.125 µg/mL (≈ 0.071 µM)	0.05	.25 µg/mL (≈ 0.142 µM)	.5 µg/mL (≈ 0.284 µM)	> 128	> 128	1 µg/mL (≈ 0.568 µM)	.5 µg/mL (≈ 0.284 µM)	> 128	> 128	> 128	.5 µg/mL (≈ 0.284 µM)	.125 µg/mL (≈ 0.071 µM)	> 128	2 (≈ 1.14 µM)	MIC [14]: > 128 µg/mL; MIC [15]: > 128 µg/mL; MIC (Enterococcus faecium X66): .25 µg/mL (≈ 0.142 µM); Ratio (mean MIC vancomycin-resistant strains / mean MIC vancomycin-susceptible strains) [16]: 4.6; Geometric Mean MIC, Vanco^r Strains [16]: 3.1 µg/mL; ED50 (Streptococcus pneumoniae): 0.08 mg/kg/2; Geometric Mean MIC, Vanco^s Strains [17]: 0.67 µg/mL
Teicoplanin [reference compound]		0.25	12.6	3.8																	level of human serum protein binding (human serum protein): about 90%
